Experimental data reported in US4536518A, “Antidepressant derivatives of cis-4-phenyl-1,2,3,4-tetrahydro-1-naphthalenamine” (priority 1979, dated 1985).
Where a name gives a salt, the structure may show the parent alone. Read-outs that look alike come from different tables or passages of the source.

Assays:
[1] = tested on: Synaptosomal Uptake of Dopamine (DA), rat corpus striatum; experiment: Blockade of synaptosomal uptake of dopamine (DA) in vitro; assay type: biochemical, rat (Sprague-Dawley CD)
Procedure: (§1) Sprague-Dawley CD male rats weighing 180-220 g. (Charles River Laboratories, Inc.; Wilmington, Mass.) were used in this procedure. A crude synaptosomal fraction of rat corpus striatum (for 5HT and DA uptake) or hypothalmus (for NE uptake) tissue was prepared by homogenizing tissue (25 ml./g. wet) in ice-cold 0.32M sucrose containing 1 mg./ml. glucose, 0.0001M EDTA and tris(hydroxymethyl)aminomethane to pH 7.4. The homogenate was centrifuged at 1000 × g for 10 min. at 0°-4° C., the pellet discarded and the supernatant centrifuged at 17,000 × g for 20 min. at 0°-4° C. The resulting pellet was resuspended in the ice-cold 0.32M sucrose pH 7.4 solution at 10 ml./g. original tissue (wet) for corpus striatum and 5 ml./g. original tissue (wet) for hypothalmus. […] After incubation, the mixtures were filtered through 0.45 micron Millipore filters and the filters washed with the incubation buffer. […] Uptake was calculated as picomoles 5HT, DA or NE per mg. protein (protein was determined by measurement with Folin phenol reagent).

[2] = tested on: Behavioral Despair in mice; experiment: Reduction of behavioral despair in vivo (modified Porsolt method); design: species or system mouse (Swiss-Webster CD); conditions: for ED50: Mus musculus, sc, mice, subcutaneous
Procedure: A modification of the procedure described by Porsolt et al., Arch. Int. […] (Charles River Laboratories, Inc.; Wilmington, Mass.) were housed under standard laboratory conditions for at least one week prior to experimentation. Groups of 10 mice were then injected subcutaneously with either a given dosage of the named test compound or vehicle (5% Emulphor: 5% ethanol: 90% normal saline). One hour later the mice were placed individually in 1 liter beakers containing 7 cm. of 25° C. water. Beginning at 2 min. after immersion, each mouse was observed every 30 sec. for the presence of immobility, characterized as floating motionless in the water. A total of ten observations were made, each being scored as "0=animal moving, swimming, attempting to escape" or "1=animal immobile". The number of positive observations for each mouse was then totaled and a mean immobility score calculated for the group of ten.

[3] = tested on: Synaptosomal Uptake of Serotonin (5HT), rat corpus striatum; experiment: Blockade of synaptosomal uptake of serotonin (5HT) in vitro; assay type: biochemical, rat (Sprague-Dawley CD); conditions: 5HT uptake, Examples 26-49
Procedure: as §1

[4] = tested on: Synaptosomal Uptake of Norepinephrine (NE), rat hypothalmus; experiment: Blockade of synaptosomal uptake of norepinephrine (NE) in vitro; assay type: biochemical, rat (Sprague-Dawley CD)
Procedure: as §1

[5] = tested on: 5-hydroxytryptophan-induced tremors in mice; experiment: Potentiation of 5-hydroxytryptophan-induced behavioral symptoms (tremors) in vivo; design: species or system mouse (Swiss-Webster CD); conditions: Mus musculus
Procedure: The mice were rated for the presence of this symptom by a "blinded observer" at 10-20 min. after 5HTP treatment.

uptake of serotonin = conditions: background; cited from earlier work
[6] = tested on: synaptosomal norepinephrine uptake; conditions: prior art; cited from earlier work
[7] = read-out: MPE50, footnoted no observed effect on immobility
[8] = po, read-out: ED50 (tremors), no observed tremors
[9] = Examples 71-77, read-out: MPE50
[10] = po, 1 h, read-out: ED50 (tremors)
[11] = mice, oral, read-out: ED50 (tremors), no observed tremors
[12] = 1 h, mice, oral, 100 mg./kg. i.p. 5HTP one hour later, read-out: ED50 (tremors)

Row | Compound | IC50 ([1]; Examples 26-49) | IC50 [3] | IC50 ([4]; Examples 26-49) | further results
1 | CN[C@H]1CC[C@@H](c2ccccc2)c2ccccc21 (relative stereo) [Comparative Example, Cis(1S) (1R)N--methyl-4-phenyl-1,2,3,4-tetrahydro-1-naphthalenamin hydrochloride, reference compound] | 5100 nM | 3500 nM | 1900 nM | ED50 [2, 7]: > 32 mg/kg; ED50 [5, 8]: > 32 mg/kg
2 | CN[C@H]1CC[C@@H](c2ccc(Cl)c(Cl)c2)c2ccccc21 (relative stereo) [Example 1, Cis-(1S)(1R)-N-methyl-4-(3,4-dichlorophenyl)-1,2,3,4-tetrahydro-1-naphthalenamine Hvdrochloride] |  |  |  | ED50 [2, 9]: 4.5 mg/kg; ED50 [5, 10]: 3.2 to 5.6 mg/kg
3 | CN[C@@H]1CC[C@H](c2ccc(Cl)cc2)c2ccccc21.Cl (relative stereo) [Example 4, Cis-N-methyl-4-(4-chlorophenyl)-1,2,3,4-tetrahydro-1-naphthalenamine Hydrochloride] |  |  |  | ED50 [5, 10]: 10 to 32 mg/kg
4 | CN[C@@H]1CC[C@H](c2ccc(Cl)cc2)c2ccccc21.Cl (relative stereo) [Example 5, Cis-N-methyl-4-(4-chlorophenyl)-1,2,3,4-tetrahydro-1-naphthalenamine Hydrochloride] |  |  |  | IC50 ([4]; Examples 26-49, Hydrochloride): 5000 nM; ED50 [5, 11]: > 10 mg/kg
5 | CN[C@@H]1CC[C@H](c2ccc(Cl)cc2)c2ccccc21 (relative stereo) [Example 6, Cis-N-methyl-4-(4-chlorophenyl)-1,2,3,4-tetrahydro-1-naphthalenamine Hydrochloride] |  |  |  | IC50 ([1]; Examples 26-49, Hydrochloride): 1500 nM; IC50 ([4]; Examples 26-49, Hydrochloride): 1200 nM
6 | CN[C@H]1CC[C@@H](c2ccc(F)cc2)c2ccccc21 (relative stereo) [Example 7, Cis-(1S)(1R)-N-methyl-4-(4-fluorophenyl)-1,2,3,4-tetrahydro-1-naphthalenamine Hydrochloride] | 4700 nM |  | 2300 nM | ED50 [2, 9]: 138 mg/kg; ED50 [5, 8]: > 32 mg/kg
7 | CN[C@H]1CC[C@@H](c2ccc(C(F)(F)F)cc2)c2ccccc21 (relative stereo) [Example 8] | 7800 nM | 820 nM | 9800 nM | ED50 [5, 12]: 10 to 32 mg/kg
8 | CN[C@@H]1CC[C@H](c2cccc(C(F)(F)F)c2)c2ccccc21 (relative stereo) [Example 11, Cis-N-methyl-4-(3-trifluoromethyl-phenyl)-1,2,3,4-tetrahydro-1-naphthalenamine] | 2500 nM | 250 nM | 2500 nM | % MPE ([2]; 32.0 mg./kg. subcutaneous): 45%; % MPE ([2]; 56.0 mg./kg. subcutaneous, apparent overdosage): 10%; ED50 [2, 9]: 42 mg/kg; ED50 [5, 10]: 10 to 32 mg/kg
9 | CN[C@@H]1CC[C@H](c2ccc(Cl)c(C(F)(F)F)c2)c2ccccc21 (relative stereo) [Example 12, Cis-N-methyl-4-(3-trifluoromethyl-4-chlorophenyl)-1,2,3,4-tetrahydro-1-naphthalenamine] | 1500 nM |  |  | ED50 [5, 12]: 1 to 3.2 mg/kg
10 | CN[C@H]1CC[C@@H](c2ccc(Cl)cc2)c2ccc(Cl)cc21 (relative stereo) [Example 15, Cis-(1S)(1R)-N-methyl-4-(4-chlorophenyl)-7-chloro-1,2,3,4-tetrahydro-1-naphthalenamine Hydrochloride] | 1300 nM | 300 nM | 2200 nM | 
11 | CN[C@H]1CC[C@@H](c2ccc(Br)cc2)c2ccccc21 (relative stereo) [Example 16, Cis-(1S)(1R)-N-methyl-4-(4-bromophenyl)-1,2,3,4-tetrahydro-1-naphthalenamine Hydrochloride] | 1600 nM | 190 nM | 1400 nM | 
12 | CN[C@H]1CC[C@@H](c2ccc(OC)cc2)c2ccccc21 (relative stereo) [Example 17, Cis-(1S)(1R)-N-methyl-4-(4-methoxyphenyl)-1,2,3,4-tetrahydro-1-naphthalenamine Hydrochloride] | 4200 nM |  | 3000 nM | 
13 | CN[C@H]1CC[C@@H](c2ccccc2OC)c2ccccc21 (relative stereo) [Example 18] | 11000 nM | 4200 nM | 2300 nM | ED50 [2, 9]: > 32 mg/kg; ED50 [5, 11]: > 32 mg/kg
14 | CN[C@H]1CC[C@@H](c2cccc(OC)c2)c2ccccc21 (relative stereo) [Example 19] | 5000 nM | 7600 nM | 1400 nM | 
15 | CN[C@H]1CC[C@@H](c2ccc(Cl)cc2Cl)c2ccccc21 (relative stereo) [Example 20, Cis-(1S)(1R)-N-methyl-4-(2,4-dichlorophenyl)-1,2,3,4-tetrahydro-1-naphthalenamine Hydrochloride] | 1700 nM |  | 310 nM | 
16 | CN[C@H]1CC[C@@H](c2ccc(Cl)cc2)c2ccc(OC)cc21 (relative stereo) [Example 21, Cis-(1S) (1R)-N-methyl-4-(4-chlorophenyl)-7-methoxy-1,2,3,4-tetrahydro-1-naphthalenamine Hydrochloride] | 440 nM | 190 nM | 470 nM | 
17 | CN(C)[C@H]1CC[C@@H](c2cccc(C(F)(F)F)c2)c2ccccc21 (relative stereo) [Example 22, Cis-(1S)(1R)-N,N-dimethyl-4-(3-trifluoromethylphenyl)-1,2,3,4-tetrahydro-1-naphthalenamine Maleate] | 7000 nM | 190 nM | 890 nM | ED50 [2, 7]: > 56 mg/kg; ED50 [5, 10]: 3.2 to 10 mg/kg
18 | CN(C)[C@H]1CC[C@@H](c2ccc(C(F)(F)F)cc2)c2ccccc21 (relative stereo) [Example 23] | 12000 nM |  | 14000 nM | ED50 [5, 10]: 32 to 56 mg/kg
19 | CN(C)[C@@H]1CC[C@H](c2ccc(Cl)cc2)c2ccccc21 (relative stereo) [Example 24, Cis-N,N-dimethyl-4-(4-chlorophenyl)-1,2,3,4-tetrahydro-1-naphthalenamine] | 5600 nM |  | 1200 nM | 
20 | CN[C@H]1CC[C@@H](c2ccc(Cl)c(Cl)c2)c2ccccc21.Cl [Example 2, Cis-(1S)-N-methyl-4-(3,4-dichlorophenyl)-1,2,3,4-tetrahydro-1-naphthalenamine Hydrochloride] |  |  |  | % MPE ([2]; 0.10 mg./kg. subcutaneous): 7.9%; % MPE ([2]; 0.32 mg./kg. subcutaneous): 24%; % MPE ([2]; 1.00 mg./kg. subcutaneous): 17%; % MPE ([2]; 3.20 mg./kg. subcutaneous): 41%; % MPE ([2]; 10.0 mg./kg. subcutaneous): 57%; % MPE ([2]; 17.8 mg./kg. subcutaneous): 57%; % MPE ([2]; 32.0 mg./kg. subcutaneous): 66%
21 | CN[C@H]1CC[C@@H](c2ccc(C(F)(F)F)cc2)c2ccccc21 [Example 9] | 6400 nM |  | 9400 nM | ED50 [5, 12]: < 32 mg/kg
22 | CN[C@@H]1CC[C@H](c2ccc(C(F)(F)F)cc2)c2ccccc21 [Example 10] | 5600 nM | 2200 nM | 12000 nM | ED50 [5, 11]: > 32 mg/kg
23 | CN[C@H]1CC[C@@H](c2ccc(Cl)c(C(F)(F)F)c2)c2ccccc21 [Example 13] | 6800 nM |  | 3600 nM | ED50 [5, 10]: 3.2 to 10 mg/kg
24 | CN[C@@H]1CC[C@H](c2ccc(Cl)c(C(F)(F)F)c2)c2ccccc21 [Example 14] | 550 nM |  | 2400 nM | ED50 [5, 11]: > 32 mg/kg
25 | COCCCC/C(=N\OCCN)c1ccc(C(F)(F)F)cc1 [fluvoxamine] |  |  |  | serotonin uptake blockade compared to norepinephrine blockade (in words) (uptake of serotonin): selectively block the uptake of serotonin
26 | CN[C@@H]1CC[C@@H](c2ccccc2)c2ccccc21 [trans-(1R)-N-methyl-4-phenyl-1,2,3,4-tetrahydro-1-naphthalenamine] |  |  |  | synaptosomal norepinephrine uptake blocking activity (in words) [6]: excellent
27 | CN(C)C/C=C(/c1ccc(Br)cc1)c1cccnc1 [zimelidine] |  |  |  | serotonin uptake blockade compared to norepinephrine blockade (in words) (uptake of serotonin): selectively block the uptake of serotonin
